From ChEMBL document CHEMBL5030549, “Design, synthesis and biological evaluation of new thiazole scaffolds as potential TRPM8 antagonists” (Bioorg Med Chem Lett, 2021)
pIC50: −log10 of the molar value. Calls of active or inactive are those of the source. No cut-off for these calls is given here.

How the values were obtained:
[1] = target: Transient receptor potential cation channel subfamily V member 1 (Homo sapiens) (UniProt Q8NER1); assay: Antagonist activity at human TRPV1 inhibition of capsaicin-induced channel activation at <= 30 uM; conditions: dose microM <=30
[2] = target: T1, Transient receptor potential cation channel subfamily M member 8 (Homo sapiens, UniProt Q7Z2W7); assay: Antagonist activity at recombinant human TRPM8 transfected in HEK293 cells assessed as assessed as inhibition of icilin-induced intracellular calcium flux; assay type: cell-based
Target sequence in this assay (Q7Z2W7 whole entry): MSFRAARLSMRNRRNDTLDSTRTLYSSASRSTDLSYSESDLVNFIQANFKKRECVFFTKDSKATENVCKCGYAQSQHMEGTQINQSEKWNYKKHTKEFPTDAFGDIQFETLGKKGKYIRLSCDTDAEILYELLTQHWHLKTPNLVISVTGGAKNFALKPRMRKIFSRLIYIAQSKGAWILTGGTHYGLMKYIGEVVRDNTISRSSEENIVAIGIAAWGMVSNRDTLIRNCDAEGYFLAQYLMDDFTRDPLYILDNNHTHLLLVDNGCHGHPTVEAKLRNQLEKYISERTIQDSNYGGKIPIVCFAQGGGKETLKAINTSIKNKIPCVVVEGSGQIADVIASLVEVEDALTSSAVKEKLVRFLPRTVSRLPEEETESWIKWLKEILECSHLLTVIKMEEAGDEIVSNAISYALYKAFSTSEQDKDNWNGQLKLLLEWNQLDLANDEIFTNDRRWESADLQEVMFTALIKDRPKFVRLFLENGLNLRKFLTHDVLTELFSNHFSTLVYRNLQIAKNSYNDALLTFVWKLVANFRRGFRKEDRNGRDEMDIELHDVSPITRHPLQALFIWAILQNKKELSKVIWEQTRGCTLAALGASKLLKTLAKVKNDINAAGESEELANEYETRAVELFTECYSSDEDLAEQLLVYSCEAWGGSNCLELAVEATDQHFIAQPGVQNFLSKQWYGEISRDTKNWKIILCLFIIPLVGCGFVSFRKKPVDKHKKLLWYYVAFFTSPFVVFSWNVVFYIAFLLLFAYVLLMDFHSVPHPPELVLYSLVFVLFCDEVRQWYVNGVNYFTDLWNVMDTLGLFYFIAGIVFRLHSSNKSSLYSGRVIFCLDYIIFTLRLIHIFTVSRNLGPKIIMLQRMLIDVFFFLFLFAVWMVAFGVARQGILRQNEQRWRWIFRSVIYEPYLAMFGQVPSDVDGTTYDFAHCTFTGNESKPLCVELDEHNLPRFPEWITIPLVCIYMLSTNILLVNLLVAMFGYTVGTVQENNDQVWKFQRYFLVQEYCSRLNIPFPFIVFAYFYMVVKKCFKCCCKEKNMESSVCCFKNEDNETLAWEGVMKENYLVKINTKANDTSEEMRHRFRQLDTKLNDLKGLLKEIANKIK

[3] = Metabolic stability in human liver microsomes assessed as half life in presence of NADPH; assay type: ADME, Microsome
[4] = target: T1, Transient receptor potential cation channel subfamily M member 8; assay: Antagonist activity at recombinant human TRPM8 transfected in HEK293 cells assessed as assessed as inhibition of icilin-induced intracellular calcium flux at 0.5 uM relative to control; assay type: cell-based; conditions: filed as antagonist
Target sequence in this assay (Q7Z2W7 whole entry, looked up): as the sequence (Q7Z2W7 whole entry) above

[5] = Metabolic stability in human liver microsomes assessed as intrinsic clearance in presence of NADPH; assay type: ADME, Microsome
HepG2 = assay: Cytotoxicity against human HepG2 cells assessed as reduction in cell viability at 100 uM; assay type: cell-based; conditions: hepg2, 100 µM

Chain of Transient receptor potential cation channel subfamily V member 1 (Homo sapiens) (Q8NER1 whole entry): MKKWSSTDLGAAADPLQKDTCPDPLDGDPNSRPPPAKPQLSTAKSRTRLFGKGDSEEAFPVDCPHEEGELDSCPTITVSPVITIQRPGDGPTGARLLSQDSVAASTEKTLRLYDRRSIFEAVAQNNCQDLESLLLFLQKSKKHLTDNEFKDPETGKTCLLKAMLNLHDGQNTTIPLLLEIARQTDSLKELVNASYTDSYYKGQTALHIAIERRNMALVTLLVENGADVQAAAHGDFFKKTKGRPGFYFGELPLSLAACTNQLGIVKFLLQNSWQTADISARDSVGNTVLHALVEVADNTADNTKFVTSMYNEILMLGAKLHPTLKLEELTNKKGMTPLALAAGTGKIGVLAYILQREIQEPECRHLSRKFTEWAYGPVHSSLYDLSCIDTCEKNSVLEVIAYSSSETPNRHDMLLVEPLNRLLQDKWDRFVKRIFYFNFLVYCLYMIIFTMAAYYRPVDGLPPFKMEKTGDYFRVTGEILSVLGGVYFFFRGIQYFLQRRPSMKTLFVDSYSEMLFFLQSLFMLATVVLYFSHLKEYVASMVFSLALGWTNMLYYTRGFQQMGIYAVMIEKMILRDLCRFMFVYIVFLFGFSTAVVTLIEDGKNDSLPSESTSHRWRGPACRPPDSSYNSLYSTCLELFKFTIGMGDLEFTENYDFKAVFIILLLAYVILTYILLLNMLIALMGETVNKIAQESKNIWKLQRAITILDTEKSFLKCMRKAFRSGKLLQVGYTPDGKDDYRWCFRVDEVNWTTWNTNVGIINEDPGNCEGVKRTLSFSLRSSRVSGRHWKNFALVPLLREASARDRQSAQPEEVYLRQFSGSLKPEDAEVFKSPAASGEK

Compound | Activity [1] | also measured
O=C(O)CCCc1cc2nc(-c3cccc(F)c3)sc2c(=O)[nH]1 | inactive | –
CCOC(=O)CCCc1[nH]nnc1-c1nc(-c2cccc(F)c2)sc1C(=O)OCC | inactive | –
CCOC(=O)CCCC#Cc1nc(-c2cccc(F)c2)sc1C(=O)OCC | inactive | –
CCOC(=O)/C=C/Oc1nc(-c2ccc(C)cc2)sc1C(=O)OCC | inactive | pIC50 [2]: 5.95; half-life [3]: < 10 min
O=C(O)CCCc1cc2nc(-c3cccc(F)c3)sc2c(=O)o1 | inactive | –
COc1cc(CN(CCN)C(=O)c2cccs2)ccc1OCc1ccccc1 | – | inhibition [4]: 98.3%
CCOC(=O)c1sc(-c2cccc(F)c2)nc1C#CCCCC(=O)O | inactive | CLH [5]: 0.13 mL/min/g; pIC50 [2]: 5.39; Activity (HepG2): Non-Toxic
